Data taken from ChEMBL document CHEMBL5236599, “Design, synthesis and biological evaluation of cajanonic acid A analogues as potent PPAR γ antagonists” (Bioorg Med Chem Lett, 2023).

What was measured:
[1] = target: T1, Peroxisome proliferator-activated receptor gamma (Homo sapiens, UniProt P37231); experiment: Displacement of Fluormone Pan-PPAR Green from human recombinant GST-tagged PPARgamma LBD (201 to 475 residues) expressed in insect cells incubated for 2 hrs in dark by LantahScreen TR-FRET assay
T1 sequence (P37231 whole entry): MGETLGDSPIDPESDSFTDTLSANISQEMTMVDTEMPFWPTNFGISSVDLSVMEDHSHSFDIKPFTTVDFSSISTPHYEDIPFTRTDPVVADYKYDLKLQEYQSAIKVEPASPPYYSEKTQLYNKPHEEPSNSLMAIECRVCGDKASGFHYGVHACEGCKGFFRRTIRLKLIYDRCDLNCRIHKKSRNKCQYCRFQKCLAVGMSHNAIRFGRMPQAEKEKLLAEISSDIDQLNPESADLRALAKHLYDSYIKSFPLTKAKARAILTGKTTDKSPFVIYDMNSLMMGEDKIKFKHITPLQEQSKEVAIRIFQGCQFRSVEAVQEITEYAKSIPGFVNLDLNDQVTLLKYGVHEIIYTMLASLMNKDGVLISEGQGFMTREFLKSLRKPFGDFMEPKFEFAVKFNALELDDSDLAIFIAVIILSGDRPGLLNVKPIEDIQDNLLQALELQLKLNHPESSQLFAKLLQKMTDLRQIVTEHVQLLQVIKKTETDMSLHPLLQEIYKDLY

[2] = Induction of insulin-sensitizing activity in insulin-resistant human HepG2 cells assessed as increase in glucose consumption at 0.1 uM relative to control; type: functional
[3] = Induction of insulin-sensitizing activity in insulin-resistant human HepG2 cells assessed as glucose consumption at 0.1 uM (reference value: 5.83 +/-0.101 mM); type: functional
[4] = Induction of insulin-sensitizing activity in insulin-resistant mouse 3T3-L1 cells assessed as glucose consumption at 0.1 uM (reference value: 3.354 +/- 0.342 mM); type: functional
[5] = Induction of insulin-sensitizing activity in insulin-resistant mouse 3T3-L1 cells assessed as increase in glucose consumption at 0.1 uM relative to control; type: functional
[6] = Cytotoxicity against mouse 3T3-L1 cells assessed as cell viability at 0.1 uM; type: toxicity, cell-based; details: read-out: Activity
[7] = target: T2, Peroxisome proliferator-activated receptor gamma (Homo sapiens) (UniProt P37231); experiment: Antagonist activity at PPAR-gamma (unknown origin) transfected in human HEK293 cells assessed as decrease in rosiglitazone-induced receptor transactivation at 10 uM by dual-luciferase reporter gene assay relative to control; type: cell-based; details: filed as antagonist
T2 sequence (whole entry): T1 sequence (P37231 whole entry)

[8] = target: T2, Peroxisome proliferator-activated receptor gamma (Homo sapiens); experiment: Antagonist activity at PPAR-gamma (unknown origin) transfected in human HEK293 cells assessed as decrease in rosiglitazone-induced receptor transactivation at 1 uM by dual-luciferase reporter gene assay relative to control; type: cell-based; details: filed as antagonist
[9] = Induction of insulin-sensitizing activity in insulin-resistant mouse 3T3-L1 cells assessed as increase in glucose consumption at 0.1 uM relative to rosiglitazone; type: functional
[10] = target: T3, Peroxisome proliferator-activated receptor gamma (Mus musculus, UniProt P37238); experiment: Agonist activity at PPAR-gamma in mouse 3T3-L1 cells assessed as increase in adipogenesis by measuring increase in oil red staining at 1 uM by Oil-red O staining based analysis relative to control; type: toxicity, cell-based; details: 3t3-l1, 1 µM
T3 sequence (P37238 whole entry): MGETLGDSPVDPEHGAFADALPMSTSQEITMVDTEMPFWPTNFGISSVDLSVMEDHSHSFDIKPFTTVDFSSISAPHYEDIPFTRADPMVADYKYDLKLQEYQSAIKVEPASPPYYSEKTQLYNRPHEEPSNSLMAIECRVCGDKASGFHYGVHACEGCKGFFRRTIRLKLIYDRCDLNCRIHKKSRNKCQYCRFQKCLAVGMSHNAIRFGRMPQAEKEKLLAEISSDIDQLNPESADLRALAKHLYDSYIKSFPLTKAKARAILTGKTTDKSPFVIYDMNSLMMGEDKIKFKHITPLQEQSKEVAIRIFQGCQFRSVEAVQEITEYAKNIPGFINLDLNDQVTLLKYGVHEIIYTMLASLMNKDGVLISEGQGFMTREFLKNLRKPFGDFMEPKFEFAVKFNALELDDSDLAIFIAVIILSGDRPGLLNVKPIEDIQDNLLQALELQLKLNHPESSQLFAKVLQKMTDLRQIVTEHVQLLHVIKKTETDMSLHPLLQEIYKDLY

[11] = species on record: Mus musculus; experiment: Hypoglycemic activity in db/db mouse assessed as AUC of blood glucose level by oral glucose tolerance test (reference value: 114.8 mmol.min/L); type: functional

Cc1c(C)n(Cc2ccc(C(C)(C)C(=O)O)cc2)c2ccc(C(=O)N[C@@H](C)c3cccc(C4CC4)c3)cc12 showed an IC50 [1] of 108 nM.
Molecule COc1cc(CC(=O)c2cccc(-c3ccc(F)cc3)c2)c(C(=O)O)c(O)c1CC=C(C)C has an Activity [2] of -10.9%, an Activity [3] of 5.195 mM and an Activity [4] of 3.741 mM. For the same molecule, the Activity [5] was -0.2% and the viability at 0.1 µM [6] was less than 50%.
COc1cc(O)c(C(=O)O)c(CC(=O)c2cccc(-c3ccccc3Cl)c2)c1CC=C(C)C showed an inhibition [7] of 96.2%, an inhibition [8] of 50.2% and an Activity [2] of 33.27%. The Activity [3] was 7.771 mM, the Activity [4] was 6.471 mM and the Activity [5] was 72.61%. For the same molecule, the “fold change (FC)” value [9] was 1.6, the Activity [10] was 7.04% and the AUC [11] was 106 mmol·min/L.
Molecule COc1cc(CC(=O)c2cccc(-c3ccccc3C(F)(F)F)c2)c(C(=O)O)c(O)c1CC=C(C)C has an inhibition [7] of 40.5%, an Activity [2] of 43.51% and an Activity [3] of 8.368 mM. It also gave an Activity [4] of 4.333 mM, an Activity [5] of 15.58% and a viability at 0.1 µM [6] of less than 50%.
CCc1ccc(CCOc2ccc(CC3SC(=O)NC3=O)cc2)nc1 (configuration not stated) [PIOGLITAZONE] showed an AUC [11] of 94.8 mmol·min/L.
